Test results published in patent US6020374A, “Biologically active synthetic dye compounds” (priority 1998, dated 2000).

Tests used:
cells = settings: apoptosis induced by growth factor deprivation or by drugs such as cycloheximide (CX); cited from earlier work
IRS-2 = IRS-2 tyrosine phosphorylation and association with p85 in FaO cells; assay type: cell-based, rat; settings: 5 mins., EB 200 μg/ml, insulin 600 ng/ml
Method: (§1) FIG. 9 is the tyrosine phosphorylation of the IR cascade in Fao cells: A--Immunoblot analysis: Fao cells were deprived of serum for 20 hours, then incubated with EB, ATA, at 200 μg/ml or insulin at 600 ng/ml for 5 mins. Cell extracts were subjected to immunoprecipitation with antibodies to: IR β-subunit (αIR), IRS-1 (αIRS-1) and to IRS-2 (αIRS-2). The immunoprecipitates and total cell extracts were analyzed by SDS-PAGE. Proteins were transferred to nitrocellulose papers, and phosphotyrosine containing proteins were probed with anti-phosphotyrosine antibodies (αP-Tyr), antibody to the 85-kDa subunit of PI3-kinase (αp85) and antibodies to active MAPK (α active MAPK). The immunoblots were visualized by ECL (Amersham).
(§2) MCF-7 cells were grown in 35 or 100 mm dishes in DMEM with 5% bovine fetal serum. Rat hepato FaO cells were grown in RPMI 1640 medium supplemented with 10% fetal calf serum. Subconfluent monolayers of MCF-7 cells or FaO cells, were deprived of serum for 20 hours prior to each experiment. The medium was removed, and cells were incubated at 37° C. under the conditions as indicated for each experiment. […]
(§3) Nitrocellulose blots of proteins were incubated with the antibodies, and proteins were detected by enhanced chemiluminescence using horseradish peroxidase-labeled protein A, horseradish peroxidase-labeled anti rabbit IgG or horseradish peroxidase-labeled anti-mouse IgG. […]

IRS-1 = IRS-1 tyrosine phosphorylation and association with p85 in FaO cells; assay type: cell-based, rat; settings: 5 mins., EB 200 μg/ml, insulin 600 ng/ml
Method: as §1, §2, §3

MAPKs 1 and 2 = assay: Activation of MAPKs in FaO cells; assay type: cell-based, rat; settings: 5 mins., EB 200 μg/ml, insulin 600 ng/ml
Method: as §1
Nitrocellulose blots of proteins were incubated with the antibodies, and proteins were detected by enhanced chemiluminescence using horseradish peroxidase-labeled protein A, horseradish peroxidase-labeled anti rabbit IgG or horseradish peroxidase-labeled anti-mouse IgG.
In the rat hepatoma cell line FaO, EB and insulin, enhanced IRS-1 and IRS-2 tyrosine phosphorylation and their association with the 85-kDa regulatory subunit of the PI-kinase (FIG. 9A). PI3-kinase activity increases following its association with IRS-1 and IRS-2 (FIG. 9C). MAPKs 1 and 2 were activated by EB and insulin (FIG. 9A).

[1] = high doses; cited from earlier work

| SMILES | Protection of cells from apoptosis (cells) | IRS-2 tyrosine phosphorylation and association with the 85-kDa regulatory subunit of PI-kinase (IRS-2) | IRS-1 tyrosine phosphorylation and association with the 85-kDa regulatory subunit of PI-kinase (IRS-1) | Activation of MAPKs 1 and 2 (MAPKs 1 and 2) | Toxicity to humans [1] |
| --- | --- | --- | --- | --- | --- |
| O=C(O)C1=CC(=C(c2ccc(O)c(C(=O)O)c2)c2ccc(O)c(C(=O)O)c2)C=CC1=O [ATA, Aurintricarboxylic acid] | protect cells from apoptosis |  |  |  |  |
| Cc1cc(-c2ccc(N=Nc3ccc4c(S(=O)(=O)O)cc(S(=O)(=O)O)c(N)c4c3O)c(C)c2)ccc1N=Nc1ccc2c(S(=O)(=O)O)cc(S(=O)(=O)O)c(N)c2c1O [EB, Evan's Blue] |  | enhanced | enhanced | activated | non-toxic to humans at high doses |
